One assay deals with T1, sigma-2 receptor (Rattus norvegicus, UniProt Q5U3Y7).
T1 construct: guinea pig brain (sigma-1 assay) or rat liver (sigma-2 assay) membrane homogenates; from tissue; host or cells: rat liver membrane homogenate
T1 sequence (Q5U3Y7 1-176): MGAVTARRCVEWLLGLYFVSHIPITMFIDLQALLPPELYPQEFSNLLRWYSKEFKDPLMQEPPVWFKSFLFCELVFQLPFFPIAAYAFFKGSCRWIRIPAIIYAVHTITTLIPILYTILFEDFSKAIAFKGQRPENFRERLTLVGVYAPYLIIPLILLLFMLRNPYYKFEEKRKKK
The assay is described as follows: Sigma-2 receptor binding, [3H](+)-DTG displacement in rat liver membrane homogenates. The protocol:
In order to verify its unaltered target recognition properties, the binding affinity of SW IV-134 to the sigma-2 receptor was determined using previously established methods employing rat liver membrane homogenates (see M&M and Ref [19] for details on receptor binding determinations). […] As another means to probe for the ability of SW IV-134 to bind to the sigma-2 receptor, we performed a competition assay using intact ovarian cancer cells and the fluorescently labeled SW43 homolog SW120 [21].
The sigma-1 and sigma-2 receptor binding affinities of SW IV-134 were determined as previously described. […] Each filter was washed three times with 200 μL of ice-cold wash buffer, and the bound radioactivity quantified using a Wallac 1450 MicroBeta liquid scintillation counter (Perkin Elmer, Boston, MA). Nonspecific binding was determined in the presence of 10 μM cold haloperidol. […]
(§1) Table S1. […] The sigma-1 and sigma-2 receptor binding affinities of S W I V-134 were determined as previously described (22). For details see also the Materials and Methods section. a Mean ± S .E .M .K i values were determined by at least three ex periments. b Ki for inhibiting the binding of [ 3H] […]

A further assay deals with T2, sigma-1 receptor (Cavia porcellus, UniProt Q60492).
T2 construct: guinea pig brain (sigma-1 assay) or rat liver (sigma-2 assay) membrane homogenates; from tissue; host or cells: guinea pig brain membrane homogenate
T2 sequence (Q60492 whole entry): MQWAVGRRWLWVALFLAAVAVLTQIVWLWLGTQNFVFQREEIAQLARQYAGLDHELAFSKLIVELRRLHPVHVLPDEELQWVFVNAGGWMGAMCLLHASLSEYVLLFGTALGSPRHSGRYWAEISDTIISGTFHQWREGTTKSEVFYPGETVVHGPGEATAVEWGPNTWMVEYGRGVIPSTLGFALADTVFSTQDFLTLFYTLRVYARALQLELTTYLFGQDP
The assay is described as follows: Sigma-1 receptor binding, [3H](+)-pentazocine displacement in guinea pig brain membrane homogenates. To be noted: inhibiting binding of [3H](+)-pentazocine to guinea pig brain homogenates; mean ± S.E.M., at least three experiments. The protocol:
The sigma-1 and sigma-2 receptor binding affinities of SW IV-134 were determined as previously described. Briefly, guinea pig brain (sigma-1 assay) or rat liver (sigma-2 assay) membrane homogenates (~300 μg protein) were diluted with 50 mM Tris-HCl, pH 8.0 and incubated with the radioligand {~5 nM [^3H](+)-pentazocine (34.9 Ci/mmol; sigma-1 assay) or ~5 nM [3H](+)-DTG (58.1 Ci/mmol; sigma-2 assay)} and SW IV-134 with concentrations ranging from 0.1 nM to 10 μM in a total volume of 150 μL in 96-well plates at 25°C. […] Each filter was washed three times with 200 μL of ice-cold wash buffer, and the bound radioactivity quantified using a Wallac 1450 MicroBeta liquid scintillation counter (Perkin Elmer, Boston, MA). Nonspecific binding was determined in the presence of 10 μM cold haloperidol. […]
as §1

Assay [1] relates to ovarian cancer cell lines (SKOV3, OVCAR3, HEY A8, HEY A8 MDR). The assay is described as follows: Cell viability (CellTiter-Glo) in a panel of four ovarian cancer cell lines. It is filed as cell-based. To be noted: increasing doses, 18 hours. The protocol: (A) SKOV3, (B) OVCAR3 (C) HEY A8 and (D) HEY A8 MDR cells were treated with increasing doses of SW43, SW IV-52, SW43 plus SW IV-52, and SW IV-134 for 18 hours. Cell viability was determined by CellTiter-Glo assays [p < 0.015 (A), NS (B), p < 0.017 (C), p < 0.034 (D), one-way ANOVA].
Cells (1 × 10^4) were seeded into 96 well plates. Treatment as described in the figure legends was initiated the following day. Cell viability was determined 18 hours after treatment using CellTiter-Glo Luminiscent Viability Assay (Promega, Madison, WI). Data were recorded with a SpectraMax Gemini microplate spectrofluorometer, Molecular Devices (Silicon Valley, CA).
(Cellular ATP, detected with luciferase, serves as a proxy for viable cell number.)

For the next assay, the system named is SKOV3-Luc xenografts. The assay is described as follows: Intraperitoneal SKOV3-Luc xenograft model of ovarian cancer (bioluminescence imaging, survival). It is filed as in vivo, SCID mice. To be noted: for Tumor response by bioluminescence signal intensity during treatment: start 7 days after inoculation, first week onward; for Median survival: daily i.p. for 3 weeks, 10 mice per group followed, vehicle 74 days. The source says: Figure 6 SW IV-134 is a potent single-agent cancer drug in a peritoneal mouse xenograft model of ovarian cancer. (A) Female SCID mice were inoculated intraperitoneally with 5 × 10^6 SKOV3-Luc cells. Treatment was initiated with intraperitoneal injections of SW43, SW IV-134, or vehicle control 7 days after tumor cell inoculation, and continued for a total of 3 weeks. Mice were imaged once a week during the treatment period. Change in bioluminescence photon flux during treatment in each experimental arm (n = 15) was evaluated. Bioluminescent signals at each time point were averaged per treatment group (mean ± SEM). Significant differences were noted between vehicle vs. SW IV-134 and SW43 vs. SW IV-134 (p < 0.0097, one-way ANOVA). (B) Bioluminescent images at the end of the treatment (day 21) of one representative mouse per treatment arm (n = 15). […] (C) Kaplan-Meier survival analysis. At the end of the 3 week treatment, 5 mice from each experimental group were subjected to necropsy. The remaining 10 mice from each treatment group were followed until death to examine overall survival (p < 0.0108, Log-rank test).
All studies were performed in accordance with an animal protocol approved by the Washington University Institutional Animal Care Facility. Female severe combined immunodeficient mice (SCID) were purchased from Taconic Farms (Hudson, NY) at age 6 weeks. SKOV3-Luc cells (5 × 10^6) were inoculated intraperitoneally and mice were randomized 7 days later into one of the three treatment groups according to their baseline luciferase activity employing bioluminescence imaging (BLI). For bioluminescence imaging, mice were injected intraperitoneally with 150 μg/g D-luciferin (Biosynth, Naperville, IL) in PBS, anesthetized with 2.5% isoflurane, and imaged with a charge-coupled device (CCD) camera-based bioluminescence imaging system (IVIS 100; Caliper, Hopkinton, MA; exposure time 300 seconds, binning 16, field of view 12, f/stop 1, open filter).
In vivo experiments were conducted with 15 mice per treatment group. Treatment involved daily intraperitoneal injections with 90 μL of SW43 (7.5 mM stock), SW IV-134 (7.5 mM stock), or vehicle-only (25% cremophor in H2O) for 3 weeks. Tumor burden was monitored by bioluminescence imaging once a week during the treatment period. At the end of the treatment, 5 mice were randomly removed per treatment group and submitted for necropsy to the Washington University Department of Comparative Medicine. Blood samples were collected by intracardiac withdrawal prior to necropsy for chemistry and hematology work-up. In addition, various key organs were harvested for gross and histopathological examination. The remaining 10 mice from each treatment group were followed over time to examine overall survival. For survival studies, actual death or poor physical condition/large tumor size meeting criteria for euthanasia, constituted a death event.

Where [2] appears, read: daily i.p. 90 μL of 7.5 mM stock.

The Ki is the dissociation constant of the complex between target and ligand, obtained from inhibition or displacement. A low value points to a stronger hold on the target.

For `COc1ccc(C)cc1NC(=O)OC1CC2CCCC(C1)N2CCCCCCCCCCN[C@@H](C)C(=O)N[C@H](C(=O)N1CCC[C@H]1C(=O)N[C@@H]1CCCc2ccccc21)C(C)(C)C` (stereo partly drawn) [SW IV-134], the figures for the Ki on sigma-2 receptor and at sigma-1 receptor were 22.6 ± 1.8 nM and 5740 ± 476 nM, respectively. Further, the “Killing activity (cell viability)” value in assay [1] is “greater cytotoxicity”. Besides, the “Bioluminescence signal intensity at the end of the 3 week treatment” value in the assay with SKOV3-Luc xenografts (daily i.p. 90 μL of 7.5 mM stock, day 21) is “significantly lower than both the SW43 and the vehicle-only treatment groups”. In addition, the “Tumor response by bioluminescence signal intensity during treatment” value with SKOV3-Luc xenografts (setting [2]) is “Tumor regression was evident by the end of the first week of treatment”. The Median survival with SKOV3-Luc xenografts amounted to 86.5 days. Besides, the “Extension of median survival” value with SKOV3-Luc xenografts (intraperitoneal metastatic model) is 10 days.

As to `COc1ccc(C)cc1NC(=O)OC1CC2CCCC(C1)N2CCCCCCCCCCN` (stereo not drawn) [SW43, reference compound], the Ki came out at 7.1 ± 1.3 nM at sigma-2 receptor and 134 ± 11.9 nM on sigma-1 receptor. Besides, the “Killing activity (cell viability)” value in assay [1] is “effective against different ovarian cancer cell lines”. Besides, in the assay with SKOV3-Luc xenografts (setting [2]), the “Tumor response by bioluminescence signal intensity during treatment” value is on record as “signal intensity increased”. In the assay on SKOV3-Luc xenografts, this compound displayed a Median survival of 76.5 days.
